Measured values reported in patent US20240139199A1, “USE OF ADENINE IN PREPARATION OF DRUG FOR TREATING DIABETIC ULCERS” (Energenesis Biomedical Co., Ltd., priority 2021, published 2024).

Tests used:
[1] = test system: diabetic ulcers; test: double arm, double-blind study of adenine gel in subjects with diabetic ulcers (wound healing); type: in vivo, human
Protocol: The efficacy of adenine and/or a pharmaceutically acceptable salt thereof as a therapeutic agent for diabetic ulcers was evaluated through a double arm, double-blind study as disclosed in the present disclosure. The groups consist of a 0.02% adenine gel group and a placebo group. The basic information of the subjects is shown in Table 1, while the analysis of wound healing rates based on the Wagner-[…] ulcer classification system and initial wound area size is presented in Tables 2 to 4 below, respectively. Similarly, in a double arm, double-blind study as described in Example 1, the present disclosure evaluated the effects of the disclosed adenine and/or a pharmaceutically acceptable salt thereof as a medicament for treating the diabetic ulcers.

[2] = test system: COX-2; test: COX-2 protein expression (stated finding, no method given); type: cell-based
[3] = test system: fibroblast; test: fibroblast growth inhibition (stated finding, no method given); type: cell-based

Nc1ncnc2nc[nH]c12 [adenine]
wound healing effect (in words) ([1]; Grade 1 and/or Grade 2 ulcers, or wound area 1.5 to 25 square centimeters): remarkably superior effects in accelerating and enhancing wound healing | scar formation ([1]; directly administered to ulcer wounds in diabetic patients): scar formation is reduced | onset of wound healing (in words) ([1]; results from Table 5): rapid and effective healing starting from the fourth week | protein expression of COX-2 [2]: reduce protein expression of COX-2 | fibroblast growth [3]: inhibit fibroblast growth
